Values of other authors in US11992479B2, “R-fadrozole for use in the treatment of aldostonerism” (priority 2018, dated 2024).
Counter-ions that a name gives are not always drawn.

Experiments:
basal plasma aldosterone = details: twice daily, healthy male subjects; cited from earlier work
[1] = phase I study; cited from earlier work
plasma aldosterone = details: 0.5 and 1.0 mg twice a day, PA patients; cited from earlier work
DOC = details: PA patients, cited from earlier work

| Structure (SMILES) | effect on basal plasma aldosterone levels (basal plasma aldosterone) | effect on serum potassium (basal plasma aldosterone) | elimination half-life [1] | time to peak concentration [1] | decrease of plasma aldosterone (plasma aldosterone) | DOC mean level (DOC; 1.0 mg twice-daily dose) | increase of DOC (DOC; twice-daily dosing) |
| --- | --- | --- | --- | --- | --- | --- | --- |
| N#Cc1ccc(C2CCCc3cncn32)cc1 (racemic) [Fadrozole hydrochloride] | only modestly affect basal plasma aldosterone levels | without significantly elevating serum potassium |  |  |  |  |  |
| N#Cc1ccc([C@H]2CCc3cncn32)c(F)c1 [LCI699] |  |  | approximately 4 hours | 1 h | 70-80% | 9.8 ng/mL | over 700% |
